Four molecules from paper PMC6683298, “Identifying potential novel drugs against Helicobacter pylori by targeting the essential response regulator HsrA” (Scientific Reports, 2019) can be followed below.

This experiment addresses T1, HsrA response regulator (HP1043) (Helicobacter pylori, UniProt O25684).
T1 construct: gene HP_1043; N-terminal 6xHis tag, removed with thrombin; 223 residues; symmetric dimer
T1 sequence (O25684 1-223): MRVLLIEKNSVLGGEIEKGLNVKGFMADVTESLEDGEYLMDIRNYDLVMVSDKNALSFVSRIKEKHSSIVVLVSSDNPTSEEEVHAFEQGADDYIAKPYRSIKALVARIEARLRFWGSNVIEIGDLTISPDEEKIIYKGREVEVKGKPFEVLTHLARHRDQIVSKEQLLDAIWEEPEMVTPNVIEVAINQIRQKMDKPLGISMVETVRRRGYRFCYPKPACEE
The experiment is described as follows: isothermal titration calorimetry. Type of experiment: binding. The following applies: read-out: ITC^a / Kd. From the text: isothermal titration calorimetry on HsrA response regulator (HP1043)

Structures are written as SMILES.

Turning to `O=c1cc(-c2ccccc2)oc2cc(O)cc(O)c12` [chrysin], the Kd was determined as 17 µM.

With `O=c1cc(-c2ccc(O)cc2)oc2cc(O)cc(O)c12` [apigenin], the Kd is 20 µM.

Consider `COc1ccc([C@@H]2CC(=O)c3c(O)cc(O)cc3O2)cc1O` [hesperetin], for which the Kd is 26 µM.

Turning to `O=c1c(O)c(-c2ccc(O)cc2)oc2cc(O)cc(O)c12` [kaempferol], the Kd amounted to 33 µM.
